Reference: patent US9556437B2, “FAT1 gene in cancer and inflammation” (DEPARTMENT OF BIOTECHNOLOGY (DBT), priority 2012, dated 2017)
Entries after “also recorded” stand apart in the source; their conditions may differ.

Legend:
Assay type in all cases: cell-based, human
PDCD4 = test: Western blot PDCD4 protein; conditions: U87MG, A172, U373MG and T98G, vs siControl
Description: (§1) Western Blotting Analyses: Cells were lysed in triple detergent buffer containing protease and phosphatase inhibitors (Sigma Aldrich), lysates were quantified by BCA kit (Pierce, Thermo Fisher Scientific, Rockford, Ill. USA) and electrophoresed in 10% SDS-PAGE and electroblotted on nitrocellulose membrane (Millipore, Billerica, Mass., USA). Membrane was blocked with 5% bovine serum albumin (BSA) in 1×TBS at 4° C. for overnight. Primary and secondary antibody was diluted in 5% BSA and 0.1% tween-20 in 1×TBS. Blot was incubated in primary antibody overnight at 4° C. followed by secondary antibody incubation for 2 hrs at room temperature. Blot was developed by BCIP-NBT (Promega, Madison, Wis., USA) and captured using Alpha Imager EP software.

[1] = tested on: AP-1 transcriptional activity; test: AP-1 luciferase assay; conditions: U87MGsiFAT1 vs U87siControl, p<0.01
Description: AP-1 and COX-2 Promoter Luciferase Assay: U87MG cells (40000 cells/well) were plated in 6-well plates in triplicate on day zero. On day 1, cells were transfected with siFAT1 and siControl. On day 2 cells were transiently transfected with 4×AP-1-luciferase reporter plasmids as described previously. Cells were transfected with 1 μg of AP-17× luciferase reporter plasmid, along with 50 ng of pRL-TK (Renilla luciferase) control plasmid using LIPOFECTAMINE2000 as the transfection reagent. After 48 hrs, the cells were lysed by 1× passive-lysis-buffer (Promega, Madison, Wis., USA) and assayed for luciferase activity as previously described. For COX-2 luciferase assay U87MG cells were transfected with siFAT1 and siControl on day 1 and after 4 hrs incubation were treated with 10 μM SR11302. On day2 cells were transiently transfected with COX-2 reporter plasmid and again treated with 10 μM SR11302. After 48 hrs, the cells were assayed for luciferase activity.

U87MG cells [2] = test: In vitro Scratch Assay of cell migration
Description: FIGS. 14A to 14D: Effect of NS-398 and FAT1 knockdown simultaneously on Cell Migration by In-vitro Scratch Assay. The in vitro Scratch Assay was performed at 72 hours after culturing cells as follows: At Day 0, 5,000 U87MG cells are plated per well of a 96 well plate. […] (C) Assay of cell migration by the Modified Boyden Chamber Assay under conditions of normoxia and hypoxia. (D) Quantitation of data from (C).
The Scratch Assay is performed at 72 hours after treatment. A scratch is made on the culture surface using a sterile 10 μl tip and cells were allowed to grow. Images were captured after every 3 hrs to monitor the closure of the wound in the culture surface for next 24 hrs.

c-jun = test: Western blot total c-jun; conditions: U87MGsiFAT1 vs siControl
Description: as §1

U87MG cells [3] = test: Migration assay, modified Boyden chamber; conditions: U87MGsiFAT1 vs siControl, 24 hrs assay, 72 hrs post-transfection, P<0.01
Description: (§2) Migration and Invasion Assays: The modified Boyden chamber/matrigel assay was performed according to the manufacturer's directions (BD Biosciences, Bedford, Mass.). For in vitro migration assays, chambers with control inserts that lacked the matrigel coating were used. Transfections were carried out in U87MG and A172 cells and 48 hrs later 3×10^4 U87MG cells/well and 7×10^4 A172 cells/well were resuspended in serum-free DMEM and seeded in triplicate in matrigel-coated (1 mg/ml; BD Biosciences) and uncoated control inserts (8-μm pore-size, BD Bioscience, Bedford, Mass.). The remaining protocol was done as previously described.

A172 cells [4] = test: Migration assay, modified Boyden chamber; conditions: A172siFAT1 vs siControl, 24 hrs assay, 72 hrs post-transfection, P<0.001
Description: as §2

ECM protease activity = test: Gelatin zymography; conditions: conditioned media of U87MG cells, 72 hrs, vs siControl
Description: Gelatin Zymography: U87MG cells (2.5×10^5 cells/flask) were plated into 25 cm^2 flask. Transfection was performed on day 1 and after 72 hrs, the conditioned medium was collected, clarified by centrifugation, concentrated by Centricon YM-30 (10:1 concentration; Millipore, Billerica, Mass., USA), and separated in non-reducing polyacrylamide gels containing 0.1% (wt/vol) gelatin. The gel was incubated with 1× Zymogram renaturing buffer for 30 min at room temperature, 1× Zymogram developing buffer for 30 min at room temperature, and 1× Zymogram developing buffer at 37° C. for overnight. The gel was then stained for protein with 0.25% (w/v) Coomassie Blue R-250 and then destained with Coomassie R-250 destaining solution (Methanol:Acetic acid:Water (50:10:40). Proteolysis was detected as a white zone in a dark field.

U87MG cells [5] = test: Invasion assay, matrigel; conditions: U87MGsiFAT1 vs siControl, P<0.01
Description: as §2

A172 cells [6] = test: Invasion assay, matrigel; conditions: A172siFAT1 vs siControl, P<0.01
Description: as §2

Substance: siFAT1: FAT1 specific siRNA (Invitrogen), FAT Stealth RNAi siRNA-I (HSS103567), used for further experiments (sense CCCAACACACCUGUGGUCAUGGUAA; antisense UUACCAUGACCACAGGUGUGUUGGG; Stealth modification, chemistry not fully specified; listed as Homo sapiens)
- PDCD4 protein level (PDCD4): increased
- reduction in AP-1 luciferase activity [1]: 2 fold
- inhibition of cell migration (U87MG cells [2]; Scratch Assay at 72 hours after treatment): about 50%
- migration ability of cells (U87MG cells [2]; scratch and modified Boyden chamber assays, normoxic or hypoxic conditions (FIG. 14)): reduced
- total c-jun protein level (c-jun): reduction
- reduction in migration (U87MG cells [3]): > 2 fold
- reduction in migration (A172 cells [4]): > 3 fold
- ECM protease activity (ECM protease activity): decreased; also recorded: reduced protease activity
- reduction in invasion (U87MG cells [5]): > 2 fold
- reduction in invasion (A172 cells [6]): > 1.5 fold
